From US20240307308A1, “PORPHYRIN NANOVESICLE WITH FATTY ACID CONJUGATE” (priority 2021, published 2024)
“Also recorded” adds a separate entry of the source.

How the values were obtained:
KB cells = experiment: Intracellular uptake by fluorescence microscopy; assay type: cell-based; details: 1 mM (1000 μM) free EDTA with 5 μM PS
Description: Fluorescence microscopy method was firstly used to track particles' intracellular uptake on KB cells that cultured in RPMI-1640 media with 10% FBS. Briefly, 5×10^4 cells/well were seeded in eight-well chamber slides 24 h prior to incubation. Cells were incubated with NPS and PS at porphyrin concentration of 1 μM for 4 h at 37° C., rinsed with PBS for 3 times and then re-culture in fresh media. Olympus FV1000 laser fluorescence scanning microscopy (Olympus, Tokyo, Japan) was conducted to monitor the porphyrin fluorescence change of the cells with time (immediately and at 3 h and 18 h after removing the incubation medium). The fluorescence microscopy method was also used to examine eNPS uptake in KB epithelium cells versus normal fibroblast cells (NFB)

[1] = doses of 1000 mg/kg; cited from earlier work

Row | Compound | Effect of co-incubated free EDTA on PS uptake (KB cells) | Acute toxicity [1]
1 | O=C(O)CN(CCN(CC(=O)O)CC(=O)O)CC(=O)O [free EDTA, Ethylenediaminetetraacetic acid] | negligible enhancement; also recorded: negligible effect | –
2 | pyropheophorbide-lipid [porphyrin-lipid] | – | minimal acute toxicities
